Laboratory results reported in patent US20130005741A1, “SUBSTITUTED PYRIMIDINE AS A PROSTAGLANDIN D2 RECEPTOR ANTAGONIST” (AVENTIS PHARMACEUTICALS INC., priority 2010, published 2013).
Counter-ions that a name gives are not always drawn.

Biological target: T1, human prostaglandin D2 receptor (DP) (Homo sapiens, UniProt Q13258)
T1 construct: endogenous in cells; host or cells: human platelets in platelet-rich plasma from donor blood
T1 sequence (Q13258 1-359): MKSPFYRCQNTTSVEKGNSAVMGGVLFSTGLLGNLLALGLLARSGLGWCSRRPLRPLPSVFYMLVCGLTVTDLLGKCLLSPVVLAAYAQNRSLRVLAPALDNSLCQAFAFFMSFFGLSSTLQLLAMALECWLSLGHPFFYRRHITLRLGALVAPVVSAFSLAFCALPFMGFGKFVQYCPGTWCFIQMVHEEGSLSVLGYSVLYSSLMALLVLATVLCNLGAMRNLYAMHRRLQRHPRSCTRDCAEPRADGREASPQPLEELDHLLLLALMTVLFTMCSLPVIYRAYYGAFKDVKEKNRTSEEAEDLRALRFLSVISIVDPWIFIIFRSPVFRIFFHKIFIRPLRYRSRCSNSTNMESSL
Test: BW245C-induced cAMP accumulation in human platelet rich plasma (hPRP) by HTRF cAMP assay
Assay type: cell-based
Details: inhibition of BW245C (25 nM)-induced cAMP accumulation in human platelet-rich plasma
From the text: Assessment of Antagonist Activities of Compounds on BW245C-Induced cAMP
Accumulation in Human Platelet Rich Plasma (hPRP) by HTRF cAMP Assay
The purpose of the assay is to assess compound antagonist activity at the human prostaglandin D2 receptor (DP), also known as (DP1), in the presence of plasma proteins. DP is a Gs-protein coupled receptor, the activation of which induces cAMP accumulation. BW245C is a DP selective agonist. Therefore, by measuring inhibition of BW245C-induced 3′-5′-cyclic adenosine monophosphate (cAMP) accumulation in human platelet-rich plasma (hPRP), the assay enables us to identify or confirm antagonist compounds at the human DP and/or IP receptors.
The principle of the assay is based on HTRF technology (Homogeneous Time-Resolved Fluorescence). The method is a competitive immunoassay between native cAMP produced by cells and the tracer cAMP labeled with the dye d2. The tracer is visualized by a monoclonal antibody anti-cAMP labeled with cryptate. The specific signal (i.e. energy transfer) is inversely related to the concentration of cAMP in the standards or samples. The assay was carried out using the cAMP HiRange HTRF kit from Cisbio (catalog number 62AM6PEB, 888-963-4567).
Preparation of Human Platelet Rich Plasma (hPRP): Human blood was obtained from sanofi-aventis on-site blood donor panel. […]

| IC50 [nM] | SMILES |
| --- | --- |
| 73 | COc1nc(NCCc2ccc(OC(F)(F)F)cc2)cc(N2CCC[C@@H](CC(=O)O)C2)n1 [drawing 23, (S)1-{2-Methoxy-6-[2-(4-trifluoromethoxy-phenyl)-ethylamino]-pyrimidin-4-yl}-piperidin-3-yl)-acetic acid, phosphoric acid salt] |
| 155 | COc1nc(NCCc2ccc(OC(F)(F)F)cc2)cc(N2CCC[C@H](CC(=O)O)C2)n1 (single isomer, unassigned) [(R) enantiomer] |
